What follows are compounds tested against T1, EP3 membrane (EP3 receptor) (Homo sapiens, UniProt P43115) (assay: [3H]-PGE2 binding; EP3 competition binding (SPA)).
T1 construct: purchased Millipore HTS092M
T1 sequence (P43115 1-390): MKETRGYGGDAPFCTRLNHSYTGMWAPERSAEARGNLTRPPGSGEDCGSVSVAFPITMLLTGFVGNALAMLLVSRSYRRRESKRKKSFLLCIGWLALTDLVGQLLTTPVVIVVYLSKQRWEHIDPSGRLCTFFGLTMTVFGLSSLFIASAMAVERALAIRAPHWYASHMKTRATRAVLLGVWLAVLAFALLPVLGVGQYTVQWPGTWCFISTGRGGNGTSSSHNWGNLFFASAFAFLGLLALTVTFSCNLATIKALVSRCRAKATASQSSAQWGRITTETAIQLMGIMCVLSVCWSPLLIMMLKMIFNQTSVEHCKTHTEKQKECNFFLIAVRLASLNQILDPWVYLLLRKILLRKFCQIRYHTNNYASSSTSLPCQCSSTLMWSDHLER
Method: Biological Example 1: [3H]-PGE2 Binding
EP3 competition binding was determined using the following materials and experimental conditions: • Beads=Perkin Elmer RPNQ0001 • [3H]PGE2=Perkin Elmer NET428025UC • 384-well plate=Perkin Elmer 6007290 • EP3 membrane=Millipore HTS092M • Membrane concentration=2 μg/well • Beads concentration=0.25 mg/well • [3H]-PGE2=2 nM; DMSO—0.1% • Binding buffer=50 mM Tris, 10 mM MgCl2, 1 mM EDTA, PH 7.4.
The reaction system was prepared by mixing 5 μl of unlabeled compound; 5 μl of diluted [3H]-PGE2; 5 μl of diluted membrane; and 15 μl of SPA beads dissolved in binding buffer (adding in the following sequence: Unlabeled compound, [3H]-PGE2, Membrane and Beads).
The binding buffer was removed from refrigeration (@ 4° C.) and allowed to warm to room temperature. Test compound (@ stock concentration of […] in DMSO) was serial dilutes (1:3) with 100% DMSO using Echo plate. Diluted test compound (30 nL) was dispensed to the 384-well assay plate (using Echo 550 Labcyte System). To each well was then added assay buffer (5 μl) and each well was spun. Beads were weighed out, dissolved in assay buffer to a concentration of 0.25 mg/15 μl. Original membrane was diluted with assay buffer to a concentration of 2 μg/5 μl. Original [3H]-PGE2 with diluted with assay buffer to a concentration of 12 nM. To each test well were then added diluted [3H]-PGE2 (5 μl), diluted membrane (5 μl), and dissolved beads (15 μl). The plate was equilibrated at room temperature on a plate shaker for 2 hours and then read with a TOPCOUNT scintillation plate reader. Results were analyzed using a Prism program with non-linear regression, one-site fit for Ki.
`O=C(NC/C(F)=C1\CCCc2cnn(Cc3cnn(-c4ccccc4)c3)c21)NS(=O)(=O)c1cc(Cl)c(Cl)s1` [Compound #191, (Z)-4,5-dichloro-N-((2-fluoro-2-(1-((1-phenyl-1H-pyrazol-4-yl)methyl)-1,4,5,6-tetrahydro-7H-indazol-7-ylidene)ethyl)carbamoyl)thiophene-2-sulfonamide] was tested, and the Ki was 15 nM. With `O=C(NC/C=C1\CCCc2cnn(Cc3ncc(-c4ccccc4)cn3)c21)NS(=O)(=O)c1cc(Cl)c(Cl)s1` [Compound #163, (E)-4,5-dichloro-N-((2-(1-((5-phenylpyrimidin-2-yl)methyl)-1,4,5,6-tetrahydro-7H-indazol-7-ylidene)ethyl)carbamoyl)thiophene-2-sulfonamide] the Ki was > 10000 nM. `Cc1cc(S(=O)(=O)NC(=O)NC/C(F)=C2\CCCc3[nH]nc(Cc4ccc(Cl)cc4Cl)c32)sc1Cl` [Compound #187, (Z)-5-chloro-N-((2-(3-(2,4-dichlorobenzyl)-1,5,6,7-tetrahydro-4H-indazol-4-ylidene)-2-fluoroethyl)carbamoyl)-4-methylthiophene-2-sulfonamide] gave a Ki of 1 nM. Work on `Cc1nn(C)cc1S(=O)(=O)NC(=O)NC/C(F)=C1\CCCc2cnn(Cc3ccc(Cl)cc3Cl)c21` [Compound #180, (Z)—N-((2-(1-(2,4-dichlorobenzyl)-1,4,5,6-tetrahydro-7H-indazol-7-ylidene)-2-fluoroethyl)carbamoyl)-1,3-dimethyl-1H-pyrazole-4-sulfonamide] yielded a Ki of 164 nM. `Cc1cc(S(=O)(=O)NC(=O)NC/C(F)=C2\CCCc3cnn(Cc4ccc(Cl)cc4Cl)c32)n(C)n1` [Compound #193, (Z)—N-((2-(1-(2,4-dichlorobenzyl)-1,4,5,6-tetrahydro-7H-indazol-7-ylidene)-2-fluoroethyl)carbamoyl)-1,3-dimethyl-1H-pyrazole-5-sulfonamide] was tested, and the Ki was 75 nM. Work on `Cc1cc(Cl)ccc1Cc1nnn2c1/C(=C(\F)CNC(=O)NS(=O)(=O)c1cc(Cl)c(Cl)s1)CCC2` [Compound #167, (Z)-4,5-dichloro-N-((2-(3-(4-chloro-2-methylbenzyl)-6,7-dihydro-[1,2,3]triazolo[1,5-a]pyridin-4(5H)-ylidene)-2-fluoroethyl)carbamoyl)thiophene-2-sulfonamide] yielded a Ki of 7 nM. For `Cc1cc(S(=O)(=O)NC(=O)NC/C(F)=C2\CCCc3cnn(Cc4ccc(Cl)cc4Cl)c32)sc1C` [Compound #142, (Z)—N-((2-(1-(2,4-dichlorobenzyl)-1,4,5,6-tetrahydro-7H-indazol-7-ylidene)-2-fluoroethyl)carbamoyl)-4,5-dimethylthiophene-2-sulfonamide], the Ki was 8 nM. `COCn1nc(Cc2ccc(Cl)cc2Cl)c2c1COC/C2=C(/F)CNC(=O)NS(=O)(=O)c1cc(Cl)c(Cl)s1` [Compound #146, (E)-4,5-dichloro-N-((2-(3-(2,4-dichlorobenzyl)-1-(methoxymethyl)-1,7-dihydropyrano[3,4-c]pyrazol-4(5H)-ylidene)-2-fluoroethyl)carbamoyl)thiophene-2-sulfonamide] gave a Ki of 22 nM. Compound `Cc1cc(S(=O)(=O)NC(=O)NC/C=C2\CCCc3cnn(Cc4ccc(Cl)cc4Cl)c32)n(C)n1` [Compound #192, (E)-N-((2-(1-(2,4-dichlorobenzyl)-1,4,5,6-tetrahydro-7H-indazol-7-ylidene)ethyl)carbamoyl)-1,3-dimethyl-1H-pyrazole-5-sulfonamide] has a Ki of 6 nM. `O=C(NC/C(F)=C1\CCCc2cnn(C3CCN(c4ccc(F)cc4)CC3)c21)NS(=O)(=O)c1cc(Cl)c(Cl)s1` [Compound #154, (Z)-4,5-dichloro-N-((2-fluoro-2-(1-(1-(4-fluorophenyl)piperidin-4-yl)-1,4,5,6-tetrahydro-7H-indazol-7-ylidene)ethyl)carbamoyl)thiophene-2-sulfonamide] was tested, and the Ki was 13 nM. For `Cc1cc(S(=O)(=O)NC(=O)NC/C(F)=C2\COCc3[nH]nc(Cc4ccc(Cl)cc4Cl)c32)sc1Cl` [Compound #190, (E)-5-chloro-N-((2-(3-(2,4-dichlorobenzyl)-1,7-dihydropyrano[3,4-c]pyrazol-4(5H)-ylidene)-2-fluoroethyl)carbamoyl)-4-methylthiophene-2-sulfonamide], the Ki was 1 nM. `COc1ccc(S(=O)(=O)NC(=O)NC/C(F)=C2\COCc3cnn(Cc4ccc(Cl)cc4Cl)c32)cc1Cl` [Compound #165, (E)-3-chloro-N-((2-(1-(2,4-dichlorobenzyl)-1,4-dihydropyrano[4,3-c]pyrazol-7(6H)-ylidene)-2-fluoroethyl)carbamoyl)-4-methoxybenzenesulfonamide] gave a Ki of 10 nM. Work on `Cc1nc(C)c(S(=O)(=O)NC(=O)NC/C(F)=C2\COCc3cnn(Cc4ccc(Cl)cc4Cl)c32)s1` [Compound #160, (E)-N-((2-(1-(2,4-dichlorobenzyl)-1,4-dihydropyrano[4,3-c]pyrazol-7(6H)-ylidene)-2-fluoroethyl)carbamoyl)-2,4-dimethylthiazole-5-sulfonamide] yielded a Ki of 217 nM. With `Cc1cc(S(=O)(=O)NC(=O)NC/C=C2\CCCc3cnn(-c4ccc(Cl)cc4Cl)c32)sc1Cl` [Compound #196, (E)-5-chloro-N-((2-(1-(2,4-dichlorophenyl)-1,4,5,6-tetrahydro-7H-indazol-7-ylidene)ethyl)carbamoyl)-4-methylthiophene-2-sulfonamide] the Ki was 1 nM. Work on `COc1ccc(S(=O)(=O)NC(=O)NC/C(F)=C2\COCc3cnn(Cc4ccc(Cl)cc4Cl)c32)cc1F` [Compound #161, (E)-N-((2-(1-(2,4-dichlorobenzyl)-1,4-dihydropyrano[4,3-c]pyrazol-7(6H)-ylidene)-2-fluoroethyl)carbamoyl)-3-fluoro-4-methoxybenzenesulfonamide] yielded a Ki of 57 nM. With `COc1nc2ccc(S(=O)(=O)NC(=O)NC/C(F)=C3\CCCc4cnn(Cc5ccc(Cl)cc5Cl)c43)cc2o1` [Compound #178, (Z)—N-((2-(1-(2,4-dichlorobenzyl)-1,4,5,6-tetrahydro-7H-indazol-7-ylidene)-2-fluoroethyl)carbamoyl)-2-methoxybenzo[d]oxazole-6-sulfonamide] the Ki was 6 nM. `O=C(NC/C(F)=C1\COCc2cnn(C3CCN(c4ccc(F)cc4)CC3)c21)NS(=O)(=O)c1cc(Cl)c(Cl)s1` [Compound #144, (E)-4,5-dichloro-N-((2-fluoro-2-(1-(1-(4-fluorophenyl)piperidin-4-yl)-1,4-dihydropyrano[4,3-c]pyrazol-7(6H)-ylidene)ethyl)carbamoyl)thiophene-2-sulfonamide] was tested, and the Ki was 62 nM. Compound `Cc1cc(Cl)ccc1Cc1nnn2c1/C(=C(\F)CNC(=O)NS(=O)(=O)c1cc(C)c(Cl)s1)CCC2` [Compound #188, (Z)-5-chloro-N-((2-(3-(4-chloro-2-methylbenzyl)-6,7-dihydro-[1,2,3]triazolo[1,5-a]pyridin-4(5H)-ylidene)-2-fluoroethyl)carbamoyl)-4-methylthiophene-2-sulfonamide] has a Ki of 8 nM. In the case of `Cn1nc2c(c1Cc1ccc(Cl)cc1Cl)/C(=C(\F)CNC(=O)NS(=O)(=O)c1cc(Cl)c(Cl)s1)COC2` [Compound #189, (E)-4,5-dichloro-N-((2-(3-(2,4-dichlorobenzyl)-2-methyl-2,7-dihydropyrano[3,4-c]pyrazol-4(5H)-ylidene)-2-fluoroethyl)carbamoyl)thiophene-2-sulfonamide], the Ki is reported as 1 nM. `Cc1ncc(S(=O)(=O)NC(=O)NC/C(F)=C2\CCCc3cnn(Cc4ccc(Cl)cc4Cl)c32)cc1Cl` [Compound #197, (Z)-5-chloro-N-((2-(1-(2,4-dichlorobenzyl)-1,4,5,6-tetrahydro-7H-indazol-7-ylidene)-2-fluoroethyl)carbamoyl)-6-methylpyridine-3-sulfonamide] showed a Ki of 8 nM.
